Test results: ChEMBL document CHEMBL1146252, “Discovery and SAR study of novel dihydroquinoline-containing glucocorticoid receptor agonists” (Bioorg Med Chem Lett, 2007)
The source made the active and inactive calls. The rule behind the calls is not given here.

Key:
Progesterone receptor = target: T1, Progesterone receptor (Homo sapiens, UniProt P06401); experiment: Displacement of RU486 from human progesterone receptor by fluorescence polarization assay
T1 sequence (P06401 whole entry): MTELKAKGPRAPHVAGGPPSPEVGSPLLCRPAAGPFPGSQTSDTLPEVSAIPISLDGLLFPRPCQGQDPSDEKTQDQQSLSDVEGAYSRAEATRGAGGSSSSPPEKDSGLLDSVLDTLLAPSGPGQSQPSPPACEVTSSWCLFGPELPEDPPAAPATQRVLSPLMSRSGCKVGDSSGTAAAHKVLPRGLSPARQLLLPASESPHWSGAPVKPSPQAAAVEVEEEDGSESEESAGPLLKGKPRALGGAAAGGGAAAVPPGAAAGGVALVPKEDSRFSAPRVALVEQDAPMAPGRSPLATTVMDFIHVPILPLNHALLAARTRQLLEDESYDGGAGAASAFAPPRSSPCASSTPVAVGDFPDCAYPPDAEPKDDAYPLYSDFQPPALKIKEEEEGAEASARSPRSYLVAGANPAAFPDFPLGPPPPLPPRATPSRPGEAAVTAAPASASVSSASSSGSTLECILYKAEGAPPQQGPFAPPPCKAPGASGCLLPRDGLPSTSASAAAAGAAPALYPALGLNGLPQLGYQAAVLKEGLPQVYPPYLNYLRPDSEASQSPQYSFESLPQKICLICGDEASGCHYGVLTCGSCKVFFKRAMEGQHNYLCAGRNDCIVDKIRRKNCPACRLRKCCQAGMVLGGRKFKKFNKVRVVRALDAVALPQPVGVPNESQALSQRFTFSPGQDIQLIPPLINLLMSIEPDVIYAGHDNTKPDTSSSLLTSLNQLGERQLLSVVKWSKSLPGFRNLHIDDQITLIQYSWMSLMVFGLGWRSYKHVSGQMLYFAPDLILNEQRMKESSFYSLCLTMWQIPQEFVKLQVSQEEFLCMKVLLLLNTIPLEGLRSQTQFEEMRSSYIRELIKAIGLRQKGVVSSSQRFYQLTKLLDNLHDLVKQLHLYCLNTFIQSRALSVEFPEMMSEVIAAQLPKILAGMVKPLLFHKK

Glucocorticoid receptor = target: T2, Glucocorticoid receptor (Homo sapiens, UniProt P04150); experiment: Displacement of Dexamethasone from human glucocorticoid receptor by fluorescence polarization assay
T2 sequence (P04150 whole entry): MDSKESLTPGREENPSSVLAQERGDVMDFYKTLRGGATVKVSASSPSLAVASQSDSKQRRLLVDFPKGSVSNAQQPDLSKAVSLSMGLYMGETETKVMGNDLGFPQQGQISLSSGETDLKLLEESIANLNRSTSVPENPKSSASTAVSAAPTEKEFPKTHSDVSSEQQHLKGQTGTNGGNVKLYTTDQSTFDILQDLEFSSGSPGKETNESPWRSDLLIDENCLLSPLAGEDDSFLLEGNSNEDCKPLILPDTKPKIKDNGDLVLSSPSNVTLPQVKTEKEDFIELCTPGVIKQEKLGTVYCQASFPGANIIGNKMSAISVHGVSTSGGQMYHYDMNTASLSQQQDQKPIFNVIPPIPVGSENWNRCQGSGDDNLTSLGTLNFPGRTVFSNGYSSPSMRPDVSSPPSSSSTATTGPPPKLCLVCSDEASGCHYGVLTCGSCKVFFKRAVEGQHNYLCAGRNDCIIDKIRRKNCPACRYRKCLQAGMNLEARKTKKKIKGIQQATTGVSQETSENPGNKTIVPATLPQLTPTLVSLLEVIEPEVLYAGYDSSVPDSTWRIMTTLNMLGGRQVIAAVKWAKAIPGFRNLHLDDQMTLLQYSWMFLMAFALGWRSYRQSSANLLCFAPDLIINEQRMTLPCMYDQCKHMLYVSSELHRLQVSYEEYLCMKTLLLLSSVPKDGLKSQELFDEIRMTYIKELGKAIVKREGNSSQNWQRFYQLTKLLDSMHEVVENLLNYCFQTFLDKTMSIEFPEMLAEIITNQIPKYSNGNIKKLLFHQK

Estrogen receptor = target: T3, Estrogen receptor (Homo sapiens, UniProt P03372); experiment: Displacement of fluormone from human estrogen receptor by fluorescence binding assay
T3 sequence (P03372 whole entry): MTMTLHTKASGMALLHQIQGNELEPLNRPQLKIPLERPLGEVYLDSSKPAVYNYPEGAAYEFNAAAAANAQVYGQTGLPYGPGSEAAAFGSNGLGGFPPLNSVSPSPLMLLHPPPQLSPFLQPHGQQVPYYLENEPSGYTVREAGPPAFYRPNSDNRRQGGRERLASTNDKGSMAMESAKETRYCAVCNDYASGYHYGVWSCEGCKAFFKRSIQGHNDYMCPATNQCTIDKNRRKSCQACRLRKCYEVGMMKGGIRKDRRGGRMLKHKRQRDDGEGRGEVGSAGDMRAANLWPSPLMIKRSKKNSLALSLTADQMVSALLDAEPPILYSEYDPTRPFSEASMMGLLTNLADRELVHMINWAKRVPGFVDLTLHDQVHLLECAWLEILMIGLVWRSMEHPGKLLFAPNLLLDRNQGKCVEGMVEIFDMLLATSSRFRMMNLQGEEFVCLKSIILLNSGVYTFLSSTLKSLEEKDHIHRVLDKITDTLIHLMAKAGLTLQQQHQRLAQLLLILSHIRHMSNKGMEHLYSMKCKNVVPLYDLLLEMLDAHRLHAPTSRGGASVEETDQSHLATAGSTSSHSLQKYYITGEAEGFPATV

[1] = target: T4, Mineralocorticoid receptor (Homo sapiens, UniProt P08235); experiment: Displacement of Dexamethasone from human mineralocorticoid receptor by fluorescence polarization assay
T4 sequence (P08235 whole entry): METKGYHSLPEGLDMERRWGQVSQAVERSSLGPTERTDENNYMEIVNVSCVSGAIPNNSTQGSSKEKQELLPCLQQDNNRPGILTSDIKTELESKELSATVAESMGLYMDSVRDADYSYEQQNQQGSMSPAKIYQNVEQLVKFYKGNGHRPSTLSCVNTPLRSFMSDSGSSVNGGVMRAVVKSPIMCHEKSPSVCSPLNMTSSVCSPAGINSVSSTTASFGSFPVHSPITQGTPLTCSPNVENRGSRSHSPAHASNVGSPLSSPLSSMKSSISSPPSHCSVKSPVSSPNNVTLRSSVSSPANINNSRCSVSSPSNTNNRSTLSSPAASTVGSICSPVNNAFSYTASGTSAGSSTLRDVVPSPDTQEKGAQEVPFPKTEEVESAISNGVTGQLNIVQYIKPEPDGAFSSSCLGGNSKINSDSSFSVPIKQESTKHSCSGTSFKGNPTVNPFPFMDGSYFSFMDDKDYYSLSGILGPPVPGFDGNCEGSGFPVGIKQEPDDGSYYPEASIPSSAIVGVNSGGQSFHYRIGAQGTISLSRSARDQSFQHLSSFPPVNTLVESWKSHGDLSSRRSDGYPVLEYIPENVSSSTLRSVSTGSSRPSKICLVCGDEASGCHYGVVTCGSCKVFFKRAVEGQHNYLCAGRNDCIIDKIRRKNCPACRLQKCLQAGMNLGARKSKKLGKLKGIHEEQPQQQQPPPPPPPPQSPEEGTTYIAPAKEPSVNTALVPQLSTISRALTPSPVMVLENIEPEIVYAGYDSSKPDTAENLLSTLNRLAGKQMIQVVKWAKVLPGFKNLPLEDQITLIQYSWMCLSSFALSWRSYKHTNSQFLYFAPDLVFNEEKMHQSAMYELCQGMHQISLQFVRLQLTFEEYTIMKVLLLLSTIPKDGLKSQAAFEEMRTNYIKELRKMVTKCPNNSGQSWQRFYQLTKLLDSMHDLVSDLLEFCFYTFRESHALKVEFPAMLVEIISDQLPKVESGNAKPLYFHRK

[2] = Metabolic stability in human liver microsomes; format: ADME, Microsome
Fibroblast [3] = experiment: Inhibition of IL1-induced IL6 production in foreskin fibroblasts after 24 hrs; format: functional, cell-based, Homo sapiens
Fibroblast [4] = experiment: Inhibition of IL1-induced IL6 production in foreskin fibroblasts at 2000 nM after 24 hrs relative to Dexamethasone; format: functional, Homo sapiens

Row | Structure (SMILES) | IC50 (Progesterone receptor) [nM] | IC50 (Glucocorticoid receptor) [nM] | other results
1 | CC/C=C/COC(C)C1=CC(C)(C)Nc2ccc(-c3ccccc3OC)cc21 (stereo not drawn) | 1600 | 565 | 
2 | C=CCOC(C)C1=CC(C)(C)Nc2ccc(-c3ccccc3OC)cc21 (stereo not drawn) | 480 | 116 | 
3 | C=CCOC(C1=CC(C)(C)Nc2ccc(-c3ccccc3OC)cc21)c1ccccc1 (stereo not drawn) | > 2000 | > 2000 | 
4 | COc1ccccc1-c1ccc2c(c1)C(C(C)OCCc1ccc(Cl)cc1)=CC(C)(C)N2 (stereo not drawn) | 930 | 185 | 
5 | C=CC[S+]([O-])CC1=CC(C)(C)Nc2ccc(-c3ccccc3OC)cc21 (stereo not drawn) | > 2000 | > 2000 | 
6 | COc1ccccc1-c1ccc2c(c1)C(C(C)OCCc1ccccc1Cl)=CC(C)(C)N2 (stereo not drawn) | > 2000 | 290 | 
7 | C=CCOC(CCc1ccccc1)C1=CC(C)(C)Nc2ccc(-c3ccccc3OC)cc21 (stereo not drawn) | 1000 | > 2000 | 
8 | C=CCOC(CC)C1=CC(C)(C)Nc2ccc(-c3ccccc3OC)cc21 (stereo not drawn) | 330 | 355 | 
9 | Br.C=CCOC(C)C1=CC(C)(C)Nc2ccc(-c3cc(F)ccc3OC)cc21 (single isomer, unassigned; (+)) | 170 | 40 | IC50 (Estrogen receptor): > 2000 nM; IC50 [1]: 1100 nM; half-life [2]: 6 min; IC50 (Fibroblast [3]; fibroblast): 170 nM; inhibition at 2 µM (Fibroblast [4]; Homo sapiens, Fibroblast, 24 h): 28%
10 | C=CCOC(C)C1=CC(C)(C)Nc2ccc(-c3cc(F)ccc3OC)cc21.Cl (single isomer, unassigned; (-)) | 620 | 110 | IC50 [1]: > 2000 nM; half-life [2]: 5 min; IC50 (Fibroblast [3]; Homo sapiens, Fibroblast, 24 h): 260 nM; Inhibition (Fibroblast [4]): 46%
11 | C=CCOC(C)C1=CC(C)(C)Nc2ccc(-c3cc(F)ccc3OC)cc21 (racemic) | 451 | 34 | IC50 [1]: 970 nM; half-life [2]: 6 min
12 | C/C=C/COC(C)C1=CC(C)(C)Nc2ccc(-c3ccccc3OC)cc21 (stereo not drawn) | 1300 | 210 | 
13 | COc1ccc(F)cc1-c1ccc2c(c1)C(C(C)OCCc1ccccc1)=CC(C)(C)N2 (stereo not drawn) | 1300 | 195 | 
14 | C=CCOC(CC=C)C1=CC(C)(C)Nc2ccc(-c3ccccc3OC)cc21 (stereo not drawn) | 440 | > 2000 | 
15 | C=CCSCC1=CC(C)(C)Nc2ccc(-c3cc(F)ccc3OC)cc21 |  |  | IC50 (Estrogen receptor): > 2000 nM; IC50 [1]: > 2000 nM; half-life [2]: 12 min; Activity (Fibroblast [3]; Homo sapiens): inactive
16 | C=CCOC(Cc1ccccc1)C1=CC(C)(C)Nc2ccc(-c3ccccc3OC)cc21 (stereo not drawn) | 1200 | > 2000 | 
17 | COc1ccccc1-c1ccc2c(c1)C(C(C)OCCc1ccccc1)=CC(C)(C)N2 (stereo not drawn) | > 2000 | 404 | 
18 | COc1ccccc1-c1ccc2c(c1)C(C(C)OCCCc1ccccc1)=CC(C)(C)N2 (stereo not drawn) | > 2000 | 260 | 
19 | COc1ccc(F)cc1-c1ccc2c(c1)C(CSCCc1ccccc1)=CC(C)(C)N2 |  |  | IC50 (Estrogen receptor): > 2000 nM; half-life [2]: 17 min; Activity (Fibroblast [3]; Homo sapiens): inactive
20 | COc1ccccc1-c1ccc2c(c1)C(C(C)OC)=CC(C)(C)N2 (stereo not drawn) | 540 | 1060 | 
21 | COc1ccccc1-c1ccc2c(c1)C(C(C)OCCc1cccc(Cl)c1)=CC(C)(C)N2 (stereo not drawn) | 1900 | 275 | 
22 | COc1ccccc1-c1ccc2c(c1)C(C(C)OCC=C(C)C)=CC(C)(C)N2 (stereo not drawn) | 980 | 395 | 
23 | C=CCOC(C1=CC(C)(C)Nc2ccc(-c3ccccc3OC)cc21)C(C)C (stereo not drawn) | 950 | 710 | 
24 | COc1ccccc1-c1ccc2c(c1)C(C(C)OCCC1CCCCC1)=CC(C)(C)N2 (stereo not drawn) | > 2000 | 400 | 
25 | C=CCSC(C)C1=CC(C)(C)Nc2ccc(-c3ccccc3OC)cc21 (stereo not drawn) | 600 | 116 | 
26 | COc1ccccc1-c1ccc2c(c1)C(C(C)OC/C=C/c1ccccc1)=CC(C)(C)N2 (stereo not drawn) | > 2000 | 980 | 
27 | C=CCOC(CCC)C1=CC(C)(C)Nc2ccc(-c3ccccc3OC)cc21 (stereo not drawn) | > 2000 | > 2000 | 
